Values quoted from earlier work, collected in patent publication US9873704B2, “Heterocyclic compounds and their uses” (Amgen Inc., priority 2009, dated 2018).

Legend:
p110δ = target: T1, p110δ (Homo sapiens, UniProt O00329); conditions: cited from earlier work
T1 sequence (O00329 1-1044): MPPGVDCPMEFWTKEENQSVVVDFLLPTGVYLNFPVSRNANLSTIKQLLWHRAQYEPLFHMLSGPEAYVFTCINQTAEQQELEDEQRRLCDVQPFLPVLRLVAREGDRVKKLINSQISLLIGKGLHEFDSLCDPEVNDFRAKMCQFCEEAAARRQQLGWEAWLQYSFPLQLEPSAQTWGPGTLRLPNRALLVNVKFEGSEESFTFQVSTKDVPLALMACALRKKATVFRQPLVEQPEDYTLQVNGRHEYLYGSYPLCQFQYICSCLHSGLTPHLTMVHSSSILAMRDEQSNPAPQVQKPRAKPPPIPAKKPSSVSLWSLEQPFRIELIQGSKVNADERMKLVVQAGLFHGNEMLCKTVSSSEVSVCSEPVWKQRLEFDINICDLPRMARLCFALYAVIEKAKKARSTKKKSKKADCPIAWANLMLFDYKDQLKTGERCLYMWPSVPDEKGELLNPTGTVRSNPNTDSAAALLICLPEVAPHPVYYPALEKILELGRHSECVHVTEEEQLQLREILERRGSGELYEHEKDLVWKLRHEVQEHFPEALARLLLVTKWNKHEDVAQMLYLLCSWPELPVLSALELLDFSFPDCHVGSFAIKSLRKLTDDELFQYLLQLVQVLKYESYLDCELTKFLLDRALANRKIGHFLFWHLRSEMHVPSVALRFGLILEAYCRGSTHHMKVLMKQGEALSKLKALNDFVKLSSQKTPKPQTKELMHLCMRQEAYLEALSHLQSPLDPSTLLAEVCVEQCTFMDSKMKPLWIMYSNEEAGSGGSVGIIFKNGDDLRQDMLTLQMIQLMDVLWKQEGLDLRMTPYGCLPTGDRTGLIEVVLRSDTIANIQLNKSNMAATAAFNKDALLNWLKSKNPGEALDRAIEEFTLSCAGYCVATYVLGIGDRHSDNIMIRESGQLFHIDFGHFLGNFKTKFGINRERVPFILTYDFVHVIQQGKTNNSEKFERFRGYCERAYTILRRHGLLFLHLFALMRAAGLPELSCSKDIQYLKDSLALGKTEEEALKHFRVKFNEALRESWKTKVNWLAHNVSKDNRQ

protein kinases = conditions: cited from earlier work
murine model of asthma = conditions: ovalbumin-induced airway inflammation; cited from earlier work

## Cc1ccccc1-n1c(Cn2cnc3c(N)ncnc32)nc2cccc(C)c2c1=O [IC87114]
p110δ
  inhibits p110δ: high nanomolar range (triple digit)
Protein kinases
  activity against any protein kinases tested: no activity
Murine model of asthma
  inflammation and disease in a murine model of asthma: significantly ameliorate inflammation and disease
